# Assay results from patent publication US7189748B2, “Compounds and methods for treating insulin resistance and cardiomyopathy” (Forbes Medi-Tech (Research), Inc., priority 2004, dated 2007).
# Experiments:
# Rat pancreatic islets = test: Protection of islets from fatty acid (palmitate) induced apoptosis, propidium iodide flow cytometry; format: cell-based; conditions: 3 days; for % Apoptosis: Fatty Acid medium (1 millimolar sodium palmitate), Control medium 2.40, Fatty Acid medium 17.60
# Protocol: Islet protection by an exemplary compound was evaluated in an assay according to Eitel, K, et al (2002), and results obtained in this assay are reported below in Table 4. Rat pancreatic islets were cultured with control medium (RPMI 1640 supplemented with 10% fetal bovine serum, antibiotics and made […]) or in medium supplemented with 1 millimolar sodium palmitate (Fatty Acid Medium) during a period of 3 days. The culture medium was changed after 2 days to an identical composition culture medium with fresh inhibitor in the appropriate wells. Cells were stained with propidium iodide (PI), washed and propidium staining of cells (as a measure of cellular DNA content) was assessed by flow cytometry. The percentage of cells having less than the normal amount of PI staining was considered to be apoptotic cells (Eitel, K, et al. (2002)).
# SPT [1] = molecular target: T1, SPT (Homo sapiens, UniProt O15269+O15270); test: Serine palmitoyltransferase activity, Assay C ([3H]serine incorporation into lipids, cell homogenate); format: biochemical; conditions: for inhibition of SPT (in words): Assay C, at the doses of Table 2
# T1 construct: endogenous in cells
# T1 sequence (O15269 1-473): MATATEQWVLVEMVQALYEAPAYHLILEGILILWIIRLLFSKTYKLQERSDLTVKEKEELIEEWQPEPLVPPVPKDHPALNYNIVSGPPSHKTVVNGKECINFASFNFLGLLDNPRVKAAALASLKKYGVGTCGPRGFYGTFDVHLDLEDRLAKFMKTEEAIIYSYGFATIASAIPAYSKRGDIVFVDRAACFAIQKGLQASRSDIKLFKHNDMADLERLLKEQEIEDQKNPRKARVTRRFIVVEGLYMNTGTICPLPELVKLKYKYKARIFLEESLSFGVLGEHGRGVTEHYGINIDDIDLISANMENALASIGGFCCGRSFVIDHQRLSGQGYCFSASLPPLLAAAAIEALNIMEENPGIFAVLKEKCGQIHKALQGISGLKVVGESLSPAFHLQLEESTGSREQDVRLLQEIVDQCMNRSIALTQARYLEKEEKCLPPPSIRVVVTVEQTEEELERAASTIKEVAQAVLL
# T1 sequence (O15270 1-562): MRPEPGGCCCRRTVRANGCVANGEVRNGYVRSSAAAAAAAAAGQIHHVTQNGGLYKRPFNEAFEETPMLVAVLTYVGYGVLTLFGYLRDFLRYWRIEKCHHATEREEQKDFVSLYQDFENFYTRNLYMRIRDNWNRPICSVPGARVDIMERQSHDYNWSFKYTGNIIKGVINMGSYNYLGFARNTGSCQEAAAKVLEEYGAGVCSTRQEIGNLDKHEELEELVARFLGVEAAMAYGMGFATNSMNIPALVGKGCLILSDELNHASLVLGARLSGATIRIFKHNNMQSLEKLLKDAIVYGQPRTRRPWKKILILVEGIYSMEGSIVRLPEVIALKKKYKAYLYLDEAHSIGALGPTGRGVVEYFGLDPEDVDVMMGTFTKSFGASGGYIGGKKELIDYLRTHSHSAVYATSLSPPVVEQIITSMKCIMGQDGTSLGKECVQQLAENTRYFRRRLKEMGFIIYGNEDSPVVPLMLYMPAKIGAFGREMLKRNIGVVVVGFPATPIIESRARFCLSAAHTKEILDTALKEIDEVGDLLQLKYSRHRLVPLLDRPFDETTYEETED
# T1 sequence (Q969W0 1-71 partner): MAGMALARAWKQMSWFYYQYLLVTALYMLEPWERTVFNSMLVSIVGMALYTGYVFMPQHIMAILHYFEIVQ
# Protocol: An alternative assay for evaluating inhibition of SPT, the enzyme present in commonly cultured cells, is performed with CHO cells or a human cell line. Cells are washed three times with ice-cold phosphate-buffered saline (PBS). A total of 0.5 mL of lysis buffer [50 mM Hepes (pH 8.0) containing 5 mM ethylenediaminetetraacetic acid (EDTA) and 5 mM dithiothreitol (DTT)] is added to each dish. The cells are scraped using a rubber policeman, and are then transferred to a test tube on ice. The cell suspension is sonicated three times for 5 s at 1–2 min intervals on ice. Protein concentrations in cell homogenates are measured using a Bradford protein assay kit (Bio-Rad). To measure the SPT activity, 0.1 mL of cell homogenates are added to 0.1 mL of reaction buffer [20 mM Hepes (pH 8.0) containing 5 mM EDTA, 10 mM DTT, 50 μM pyridoxal-5′-phosphate, 0.4 mM palmitoyl CoA, 2 mM L-serine, 10 μCi of [^3H]serine, and test compound or standard inhibitor (myriocin). After incubation at 37° C. for 20 min with shaking, the reaction is terminated with 0.5 mL of 0.5 N NH4OH containing 10 mM L-serine. The lipid products are extracted using the solvent system: 3 mL of chloroform/methanol (1:2), 25 μg of sphingosine (1 mg/mL in ethanol) as a carrier, 2 mL of chloroform, and 3.8 mL of 0.5 N NH4OH. After vigorous mixing, the phases are separated by centrifugation at 2500 rpm for 5 min. The aqueous layer is removed by aspiration, and the lower chloroform layer is washed 3 times with 4.5 mL of water. The chloroform layer is transferred to a scintillation vial, and the solvent is evaporated under N2 gas. The radioactivity is measured with a LS6000TA liquid scintillation counter (Beckman). Nonspecific conversion of [^3H] serine to chloroform-soluble species is determined by performing the assay in the absence of palmitoyl CoA. The count of the background is about one-sixth of the count of 100% activity.
# An alternative assay using a non-chlorinated solvent modification of the Blye and Dyer lipid extraction method reported in Smedes (Smedes, F., Analyst 124:1711–18 (1999)) was employed to evaluate exemplary compounds. In this approach, the cells were washed three times with ice-cold phosphate-buffered saline and 0.5 mL of lysis buffer was added to each dish. The cells were scraped using a rubber policeman and transfer to a test tube on ice. The cell suspension was sonicated three times for 5 s at 1–2 min intervals on ice. A 0.1 mL sample of cell homogenates were added to 0.1 mL of reaction buffer in a test tube containing the appropriate concentration of test substance and 10 μCi of [^3H] serine. The reaction mixture was incubated at 37° C. for 20 min with shaking, and the reaction was terminated with 0.5 mL of […] NH4OH stop solution containing 10 mM unlabeled L-serine. Total lipids are extracted by transferring the contents of the test tube into a 15 ml centrifuge tube containing: 4.5 mL of isopropanol/cyclohexane (4:5) containing 25 μg of sphingosine (1 mg/mL in ethanol and diluted into the isopropanol/cyclohexane mixture) as a carrier. The contents were mixed vigorously and 4 mL of 0.5 N NH4OH was added. The phases were separated by centrifugation at 2500 rpm for 5 min. An accurately measured portion of the organic layer (4.0 ml) was added to a scintillation vial with 1 ml of water. Ultima Gold F (5 ml) was added, the vial was vortexed and allowed to settle into separate layers. The amount of [^3H] serine radioactivity incorporated into lipids was quantified in a scintillation counter. Non-specific counts were determined by carrying out the assay with control samples containing no palmitoyl CoA.
# beta cell apoptosis = conditions: diabetic Zucker fatty rat model; cited from earlier work
# SPT [2] = conditions: literature statement; cited from earlier work
# [3] = 1 nM, Table 2, No Inhibitor 4443/4483, no CoA blank 305
# [4] = 10 nM, Table 2, No Inhibitor 4443/4483, no CoA blank 305
Compound,% Apoptosis (Rat pancreatic islets),Counts (SPT [1]; [3]),Counts (SPT [1]; [4]),inhibition of SPT (in words) (SPT [1]),activity against SPT (in words) (SPT [2]),also measured
CCCCCCCOc1ccc(CCC(N)(CO)C(=O)O)cc1 (stereo not shown) [Compound 12],2.33%,4215,4118,moderate activity,,"protection of cells from the fatty acid treatment (in words) (Rat pancreatic islets; rat islets, fatty acid medium): fully protect cells; Counts (SPT [1]; 100 nM, Table 2, No Inhibitor 4443/4483, no CoA blank 305): 4258; Counts (SPT [1]; 1 μM, Table 2, No Inhibitor 4443/4483, no CoA blank 305): 4169; Counts (SPT [1]; 10 μM, Table 2, No Inhibitor 4443/4483, no CoA blank 305): 4608"
N[C@@H]1CON=C1O [cycloserine],,,,,,partial beta cell protective effect (beta cell apoptosis): ~50 % activity
CCCCCCCCc1ccc(CCC(N)(CO)CO)cc1 [FTY720],,,,,do not inhibit SPT,
"CCCCCCC(=O)CCCCCC/C=C/C[C@@H](O)[C@H](O)[C@@](N)(CO)C(=O)O [ISP, myriocin]",14.65%,2509,535,potent but non-selective inhibition of SPT,,"Counts (SPT [1]; 10 nM, Table 3, Control 5816, No Palm CoA 611): 959"
CCCCCCCCc1ccc(CCC(N)(CO)C(=O)O)cc1 (stereo not shown) [Compound 2],,,,,did not exhibit activity against SPT,
